The compounds below were run against V1 receptor (Rattus norvegicus, UniProt P30560) (assay: biochemical). Settings: not given.
Format: binding

Chain of V1 receptor (P30560 whole entry): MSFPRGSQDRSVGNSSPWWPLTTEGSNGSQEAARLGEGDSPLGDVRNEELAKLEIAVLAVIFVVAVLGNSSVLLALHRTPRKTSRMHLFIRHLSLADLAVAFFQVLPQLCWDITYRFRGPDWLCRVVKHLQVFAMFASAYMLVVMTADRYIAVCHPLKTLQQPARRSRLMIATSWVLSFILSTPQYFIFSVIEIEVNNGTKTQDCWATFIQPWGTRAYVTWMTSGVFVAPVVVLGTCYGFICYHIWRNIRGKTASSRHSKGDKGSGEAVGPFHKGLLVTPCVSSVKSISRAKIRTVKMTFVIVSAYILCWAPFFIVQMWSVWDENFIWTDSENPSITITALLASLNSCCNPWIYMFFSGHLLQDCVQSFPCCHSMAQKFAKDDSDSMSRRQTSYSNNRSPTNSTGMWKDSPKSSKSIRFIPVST

| Structure (SMILES) | IC50 [nM] |
| --- | --- |
| O=C(c1ccc(OCCCCC(O)CNCc2ccccc2)cc1)N1CCC(N2C(=O)CCc3ccccc32)CC1 (centres unmarked) [Example 170, 1-{1-[4-(5-Hydroxy-6-benzylaminohexyloxy)benzoyl]-4-piperidinyl}-3,4-dihydrocarbostyril] | 39 |
| CN(C)CC(O)COCCCCCOc1ccc(C(=O)N2CCC(N3C(=O)CCc4ccccc43)CC2)cc1 (centres unmarked) [Example 191, 1-{1-[4-(5-(2-Hydroxy-3-dimethylaminopropoxy)pentyloxy)benzoyl]-4-piperidinyl}-3,4-dihydrocarbostyril] | 34 |
| O=C(CCCCCOc1ccc(C(=O)N2CCC(N3C(=O)CCc4ccccc43)CC2)cc1)NC1CCNCC1 [Example 210, 1-{1-[4-(5-(4-Piperidinyl)aminocarbonylpentyloxy)benzoyl]-4-piperidinyl}-3,4-dihydrocarbostyril] | 23 |
| C=CCOCCCOc1ccc(C(=O)N2CCC(N3C(=O)CCc4ccccc43)CC2)cc1 [Example 87, 1-(1-[4-(3-Allyloxypropoxy)benzoyl]-4-piperidinyl}-3,4-dihydrocarbostyril] | 530 |
| O=C(c1ccc(Oc2ccccc2)cc1)N1CCC(N2C(=O)CCc3ccccc32)CC1 [Example 45, 1-[1-(4-Phenyloxybenzoyl)-4-piperidinyl]-3,4-dihydrocarbostyril] | 200 |
| O=C(c1ccc(OCCCCO)cc1)N1CCC(N2C(=O)CCc3ccccc32)CC1 [Example 36, 1-{1-[4-(4-Hydroxybutoxy)benzoyl]-4-piperidinyl}-3,4-dihydrocarbostyril] | 370 |
| CCN(CC)CCCCCOc1ccc(C(=O)N2CCC(N3C(=O)CCc4ccccc43)CC2)c(OCCCCCN(CC)CC)c1 [Example 292, 1-{1-[2,4-Di(5-diethylaminopentyloxy]benzoyl)-4-piperidinyl}-3,4-dihydrocarbostyril] | 77 |
| O=C(c1ccc(OCCCCC(O)CN2CCNCC2)cc1)N1CCC(N2C(=O)CCc3ccccc32)CC1 (centres unmarked) [Example 173, 1-{1-[4-(5-Hydroxy-6-(1-piperazinyl)hexyloxy]benzoyl]-4-piperidinyl}-3,4-dihydrocarbostyril.dioxalate] | 39 |
| CN(C)CCNC(=O)CCCCCOc1ccc(C(=O)N2CCC(N3C(=O)CCc4ccccc43)CC2)cc1 [Example 199, 1-[1-[4-(5-(2-Dimethylaminoethyl)aminocarbonylpentyloxy)benzoyl]-4-piperidinyl}-3,4-dihydrocarbostyril] | 55 |
| CN1CCN(CCCOc2ccc(C(=O)N3CCC(N4C(=O)CCc5ccccc54)CC3)cc2)CC1 [Example 136, 1-[1-{4-[3-(4-Methyl-1-piperazinyl)propoxy]benzoyl}-4-piperidinyl]-3,4-dihydrocarbostyril.dioxalate] | 180 |
| O=C(c1ccc(OC2CCCCC2)cc1)N1CCC(N2C(=O)CCc3ccccc32)CC1 [Example 99, 1-[1-(4-Cyclohexyloxybenzoyl)-4-piperidinyl]3,4-dihydrocarbostyril] | 960 |
| CCCC(NC(C)=O)C(=O)NCCCOc1ccc(C(=O)N2CCC(N3C(=O)CCc4ccccc43)CC2)cc1 (centres unmarked) [Example 182, 1-{1-[4-(3-[2-(Acetylamino)valerylamino]propoxy)benzoyl]-4-piperidinyl}-3,4-dihydrocarbostyril] | 120 |
| Cc1ccc(C(=O)N2CCC(N3C(=O)CCc4ccccc43)CC2)cc1C [Example 78, 1-[1-(3,4-Dimethylbenzoyl)-4-piperidinyl]-3,4-dihydrocarbostyril] | 400 |
| O=C(c1ccc(OCCCN2CCN(c3ccccc3)CC2)cc1)N1CCC(N2C(=O)CCc3ccccc32)CC1 [Example 93, 1-[1-{4-[3-(4-Phenyl-1-piperazinyl)propoxy]benzoyl)-4-piperidinyl]-3,4-dihydrocarbostyril] | 640 |
| O=C(c1ccc(OCCCCCCN2CCC(N3CCCCC3)CC2)cc1)N1CCC(N2C(=O)CCc3ccccc32)CC1 [Example 265, 1-(1-(4-[6-(4-(1-Piperidinyl)-1-piperidinyl)hexyloxy]benzoyl)-4-piperidinyl}-3,4-dihydrocarbostyril.dioxalate] | 19 |
| COc1cc(N(C)C)ccc1C(=O)N1CCC(N2C(=O)CCc3ccccc32)CC1 [Example 49, 1-[1-(2-Methoxy-4-dimethylaminobenzoyl)-4-piperidinyl]-3,4-dihydrocarbostyril] | 200 |
| COc1cc(OCCCCC(N)=O)ccc1C(=O)N1CCC(N2C(=O)CCc3ccccc32)CC1 [Example 294, 1-{1-[2-Methoxy-4-(4-carbamoylbutoxy)benzoyl]-4-piperidinyl}-3,4-dihydrocarbostyril] | 170 |
| COc1ccc(C(=O)N2CCC(N3C(=O)CCc4ccccc43)CC2)c(NC(C)=O)c1 [Example 104, 1-[1-(4-Methoxy-2-acetylaminobenzoyl)-4-piperidinyl]-3,4-dihydrocarbostyril] | 1000 |
| CCOC(=O)CNC(=O)CCCCCOc1ccc(C(=O)N2CCC(N3C(=O)CCc4ccccc43)CC2)cc1 [Example 13, 1-{1-[4-(5-Ethoxycarbonylmethylaminocarbonylpentyloxy)benzoyl]-4-piperidinyl}-3,4-dihydrocarbostyril] | 280 |

| Structure (SMILES) | IC50 [nM] |
| --- | --- |
| O=C(NCCCOc1ccc(C(=O)N2CCC(N3C(=O)CCc4ccccc43)CC2)cc1)[C@@H]1CCCN1 [Example 224, 1-{1-[4-(3-(S)-Prolylaminopropoxy)benzoyl]-4-piperidinyl]-3,4-dihydrocarbostyril] | 94 |
| CCN(CC(O)CCCCOc1ccc(C(=O)N2CCC(N3C(=O)CCc4ccccc43)CC2)cc1)CC1CCCCO1 (centres unmarked) [Example 218, 1-{1-[4-(5-Hydroxy-6-[N-ethyl-N-(2-tetrahydropyranylmethyl)amino]hexyloxy)benzoyl]-4-piperidinyl}-3,4-dihydrocarbostyril] | 44 |
| O=C(CCCCCOc1ccc(C(=O)N2CCC(N3C(=O)CCc4ccccc43)CC2)cc1)N1CCN(Cc2ccccc2)CC1 [Example 269, 1-{1-(4-[5-(4-Benzyl-1-piperazinylcarbonyl)pentyloxy]benzoyl)-4-piperidinyl}-3,4-dihydrocarbostyril] | 160 |
| COc1cc(OCCCCC(=O)N2CCSCC2)ccc1C(=O)N1CCC(N2C(=O)CCc3ccccc32)CC1 [Example 293, 1-{1-[2-Methoxy-4-(4-thiomorpholinocarbonylbutyloxy)benzoyl]-4-piperidinyl}-3,4-dihydrocarbostyril] | 220 |
| COc1cc(SC)ccc1C(=O)N1CCC(N2C(=O)CCc3ccccc32)CC1 [Example 53, 1-[1-(2-Methoxy-4-methylthiobenzoyl)-4-piperidinyl]-3,4-dihydrocarbostyril] | 80 |
| CC(=O)N[C@@H](CCC(N)=O)C(=O)NCCCOc1ccc(C(=O)N2CCC(N3C(=O)CCc4ccccc43)CC2)cc1 [Example 195, 1-(1-[4-(3-(α-N-Acetyl-(L)-glutaminyl)aminopropoxy)benzoyl]-4-piperidinyl}-3,4-dihydrocarbostyril] | 190 |
| CCN(CC)CC(O)COCCCOc1ccc(C(=O)N2CCC(N3C(=O)CCc4ccccc43)CC2)cc1 (centres unmarked) [Example 192, 1-{1-[4-(3-(2-Hydroxy-3-diethylaminopropoxy)propoxy)benzoyl]-4-piperidinyl}-3,4-dihydrocarbostyril] | 61 |
| COc1cc(SC)ccc1C(=O)N1CCC(N2C(=O)CCc3ccc(F)cc32)CC1 [Example 80, 7-Fluoro-1-[1-(2-methoxy-4-methylthiobenzoyl)-4-piperidinyl]-3,4-dihydrocarbostyril] | 80 |
| CCOc1ccc(C(=O)N2CCC(N3C(=O)CCc4cc(F)c(F)cc43)CC2)c(OC)c1 [Example 120, 6,7-Difluoro-1-[1-(2-methoxy-4-ethoxybenzoyl)-4-piperidinyl]-3,4-dihydrocarbostyril] | 200 |
| O=C(c1ccc(OCCCCCN2CCN(c3ncccn3)CC2)cc1)N1CCC(N2C(=O)CCc3ccccc32)CC1 [Example 233, 1-{1-(4-[5-(4-[2-Pyrimidyl]-1-piperazinyl)pentyloxy]benzoyl)-4-piperidinyl}-3,4-dihydrocarbostyril] | 210 |
| CCS(=O)(=O)CCCOc1ccc(C(=O)N2CCC(N3C(=O)CCc4ccccc43)CC2)cc1 [Example 143, 1-{1-[4-(3-Ethylsulfonylpropoxy)benzoyl]-4-piperidinyl}-3,4-dihydrocarbostyril] | 550 |
| COc1ccc(C(=O)N2CCC(N3C(=O)CCc4ccccc43)CC2)cc1[N+](=O)[O-] [Example 119, 1-[1-(3-Nitro-4-methoxybenzoyl)-4-piperidinyl]-3,4-dihydrocarbostyril] | 1400 |
| CN(C)CC(O)CCCCCCOc1ccc(C(=O)N2CCC(N3C(=O)CCc4ccccc43)CC2)cc1 (centres unmarked) [Example 187, 1-{1-[4-(7-Hydroxy-8-dimethylaminooctyloxy)benzoyl]-4-piperidinyl}-3,4-dihydrocarbostyril] | 40 |
| NC(=O)CCCCCOc1ccc(C(=O)N2CCC(N3C(=O)CCc4ccccc43)CC2)cc1 [Example 12, 1-{1-[4-(5-Carbamoylpentyloxy)benzoyl]-4-piperidinyl}-3,4-dihydrocarbostyril] | 230 |
| O=C(c1ccc(OCCCN2CCN(CC(O)c3ccccc3)CC2)cc1)N1CCC(N2C(=O)CCc3ccccc32)CC1 (centres unmarked) [Example 138, 1-{1-[4-{3-[4-(2-Phenyl-2-hydroxyethyl)-1-piperazinyl]propoxy}benzoyl]-4-piperidinyl}-3,4-dihydrocarbostyril.dioxalate] | 240 |
| COc1ccc(C(=O)N2CCC(N3C(=O)CCc4ccccc43)CC2)c(OCCOC(C)=O)c1 [Example 69, 1-{1-[2-(2-Acetoxyethoxy)-4-methoxybenzoyl]-4-piperidinyl}-3,4-dihydrocarbostyril] | 420 |
| CS(=O)(=O)NCCCCOc1ccc(C(=O)N2CCC(N3C(=O)CCc4ccccc43)CC2)cc1 [Example 28, 1-{1-[4-(4-Methylsulfonylaminobutoxy)benzoyl]-4-piperidinyl}-3,4-dihydrocarbostyril] | 160 |
| CCN(CC)CC(O)CCCCCCOc1ccc(C(=O)N2CCC(N3C(=O)CCc4ccccc43)CC2)cc1 (centres unmarked) [Example 184, 1-{1-[4-(7-Hydroxy-8-diethylaminooctyloxy)benzoyl]-4-piperidinyl}-3,4-dihydrocarbostyril] | 39 |

Same assay, conditions: read-out: IC50

| Structure (SMILES) | IC50 [nM] |
| --- | --- |
| CCOc1ccc(C(=O)N2CCC(n3c(=O)ccc4c(F)cc(F)cc43)CC2)c(OC)c1 [Example 175, 5,7-Difluoro-1-[1-(2-Methoxy-4-ethoxybenzoyl)-4-piperidinyl]carbostyril] | 320 |
